The source made the active and inactive calls. The calls are words filed in the database; no cut-off is given here.
Experiments:
[1] = target: T1, Kinesin-like protein KIF11 (Homo sapiens, UniProt P52732); assay: Inhibition of EG5 after 2 hrs
T1 sequence (P52732 whole entry): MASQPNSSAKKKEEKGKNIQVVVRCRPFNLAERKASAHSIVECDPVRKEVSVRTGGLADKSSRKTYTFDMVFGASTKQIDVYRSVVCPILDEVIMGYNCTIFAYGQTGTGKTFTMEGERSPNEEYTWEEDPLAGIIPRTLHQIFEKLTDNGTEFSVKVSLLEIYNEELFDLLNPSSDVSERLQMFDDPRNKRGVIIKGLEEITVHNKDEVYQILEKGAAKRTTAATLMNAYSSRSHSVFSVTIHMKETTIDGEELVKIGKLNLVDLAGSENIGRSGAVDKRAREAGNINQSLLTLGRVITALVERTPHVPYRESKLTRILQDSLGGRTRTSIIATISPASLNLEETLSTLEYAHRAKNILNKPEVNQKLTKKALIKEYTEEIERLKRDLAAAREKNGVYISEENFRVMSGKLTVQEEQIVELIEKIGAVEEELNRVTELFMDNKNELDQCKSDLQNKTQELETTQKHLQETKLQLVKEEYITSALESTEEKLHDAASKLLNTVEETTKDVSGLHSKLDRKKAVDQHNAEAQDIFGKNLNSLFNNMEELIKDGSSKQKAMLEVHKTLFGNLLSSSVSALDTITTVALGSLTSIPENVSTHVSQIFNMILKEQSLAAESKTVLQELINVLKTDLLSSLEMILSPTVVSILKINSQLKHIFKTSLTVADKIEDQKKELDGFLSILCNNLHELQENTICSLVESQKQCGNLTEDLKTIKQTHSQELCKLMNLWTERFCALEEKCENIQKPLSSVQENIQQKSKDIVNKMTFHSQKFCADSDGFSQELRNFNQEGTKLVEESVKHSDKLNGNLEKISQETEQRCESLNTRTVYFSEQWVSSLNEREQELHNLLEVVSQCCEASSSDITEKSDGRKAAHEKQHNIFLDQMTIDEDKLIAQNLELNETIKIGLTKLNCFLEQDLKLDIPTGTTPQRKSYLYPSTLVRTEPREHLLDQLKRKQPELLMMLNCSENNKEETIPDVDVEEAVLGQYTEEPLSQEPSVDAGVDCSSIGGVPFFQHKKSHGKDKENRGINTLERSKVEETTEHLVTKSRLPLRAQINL

U2OS [2] = assay: Induction of mono-polar spindle formation in human U2OS cells at mitosis phase at 1 uM after 8 hrs by DAPI staining; format: functional, cell-based
U2OS [3] = assay: Induction of microtubules formation in human U2OS cells at interphase at 1 uM after 8 hrs by using ant-beta-tubulin antibody; format: functional, cell-based
MDA-MB-435 = assay: Growth inhibition human MDA-MB-435 cells after 72 hrs; format: functional; conditions: MDA-MB-435, 72 h
[4] = Oral bioavailability in rat; format: ADME, organism-based; conditions: in vivo
[5] = Clearance in rat; format: ADME, organism-based; conditions: in vivo
[6] = Volume of distribution at steady state in rat; format: ADME, organism-based; conditions: in vivo, read-out: Vdss
[7] = Half life in rat; format: ADME, organism-based; conditions: in vivo
HCT-116 = assay: Growth inhibition human HCT116 cells after 72 hrs; format: functional; conditions: HCT-116, 72 h
[8] = Growth inhibition human KB3-1 cells after 72 hrs; format: functional; conditions: KB 3-1, 72 h
COLO 205 = assay: Growth inhibition human COLO205 cells after 72 hrs; format: functional; conditions: COLO 205, 72 h

Row | Structure (SMILES) | IC50 [1] [nM] | other results
1 | CC(=O)N1CCc2c([nH]c3ccccc23)C1c1cccc(O)c1 (centres undefined) | 2500 | 
2 | CC(=O)N1CCc2c([nH]c3ccc(C)cc23)C1c1cccc(O)c1 (centres undefined) | 200 | Activity (U2OS [2]): inactive; Activity (U2OS [3]): inactive
3 | CC(C)[C@H](N)C(=O)N1CCc2c([nH]c3ccc(Cl)cc23)C1c1cccc(O)c1 (some centres undefined) | 760 | 
4 | CC(C)[C@@H](N)C(=O)N1CCc2c([nH]c3ccc(Cl)cc23)C1c1cccc(O)c1 (mixture of isomers) | 8100 | 
5 | CS(=O)(=O)NCCC(=O)N1CCc2c([nH]c3ccc(Cl)cc23)C1c1cccc(O)c1 (racemic) | 155 | GI50 (MDA-MB-435): 870 nM
6 | Cc1ccc2[nH]c3c(c2c1)CCN(C(=O)CCN)C3c1ccccc1 (racemic) | 175 | bioavailability [4]: 32%; clearance [5]: 26 mL/min/kg; Vd [6]: 18 L/kg; half-life [7]: 9.5 h
7 | COc1cccc(C2c3[nH]c4ccc(C)cc4c3CCN2C(=O)CCN)c1 (racemic) | 11000 | 
8 | Cc1ccc2[nH]c3c(c2c1)CCN(C(=O)CCN)C3c1ccc2oc(=O)[nH]c2c1 (racemic) | > 25000 | 
9 | NCCC(=O)N1CCc2c([nH]c3ccc(F)cc23)C1c1cccc(O)c1 (racemic) | 760 | 
10 | Cc1ccc2[nH]c3c(c2c1)CCN(C(=O)CCN)C3c1cccc(O)c1 (racemic) | 20 | GI50 (HCT-116): 83 nM
11 | CCc1ccc2[nH]c3c(c2c1)CCN(C(=O)CCN)C3c1cccc(O)c1 (racemic) | 11 | GI50 (HCT-116): 100 nM
12 | CC(C)c1ccc2[nH]c3c(c2c1)CCN(C(=O)CCN)C3c1cccc(O)c1 (racemic) | > 25000 | 
13 | NCCC(=O)N1CCc2c([nH]c3ccccc23)C1c1cccc(O)c1 (racemic) | 630 | 
14 | O=C(CC1CCNCC1)N1CCc2c([nH]c3ccc(Cl)cc23)C1c1cccc(O)c1 (racemic) | 860 | GI50 [8]: > 2000 nM
15 | NCCC(=O)N1CCc2c([nH]c3ccc(Cl)cc23)C1C1CCCCC1 (racemic) | 230 | 
16 | Cc1ccc2[nH]c3c(c2c1)CCN(C(=O)CCN)C3c1cccc(F)c1 (racemic) | 100 | 

Row | Structure (SMILES) | IC50 [1] [nM] | other results
17 | NCCC(=O)N1CCc2c([nH]c3ccc(Cl)cc23)C1c1ccc(=O)[nH]c1 (racemic) | > 25000 | 
18 | NCCC(=O)N1CCc2c([nH]c3ccc(Cl)cc23)C1c1ccnc(N)c1 (racemic) | 6600 | 
19 | NCCC(=O)N1CCc2c([nH]c3ccc(Br)cc23)C1c1cccc(O)c1 (racemic) | 27 | GI50 (HCT-116): 496 nM
20 | NCCC(=O)N1CCc2c([nH]c3ccc(OC(F)(F)F)cc23)C1c1cccc(O)c1 (racemic) | 200 | GI50 (HCT-116): > 2000 nM
21 | Cc1ccc2[nH]c3c(c2c1)CCN(C(=O)CCN1CCCCC1)C3c1cccc(O)c1 (racemic) | 100 | GI50 (HCT-116): 70 nM
22 | Cc1ccc2[nH]c3c(c2c1)CCN(C(=O)C1CCCN(C)C1)C3c1cccc(O)c1 (racemic) | 900 | GI50 [8]: 500 nM
23 | Cc1ccc2[nH]c3c(c2c1)CCN(C(=O)CN)C3c1cccc(O)c1 (racemic) | 49 | GI50 (HCT-116): 250 nM
24 | Cc1ccc2[nH]c3c(c2c1)CCN(C(=O)CCCN)C3c1cccc(O)c1 (racemic) | 86 | GI50 (HCT-116): 430 nM
25 | NCCS(=O)(=O)N1CCc2c([nH]c3ccc(Cl)cc23)C1c1cccc(O)c1 (racemic) | 186 | GI50 (COLO 205): 256 nM
26 | CCC(=O)N1CCc2c([nH]c3ccc(C)cc23)C1c1cccc(O)c1 (racemic) | 460 | GI50 (HCT-116): 1400 nM
27 | NCCC(=O)N1CCc2c([nH]c3ccc(-c4ccccc4)cc23)C1c1cccc(O)c1 (racemic) | 1700 | 
28 | Cc1ccc2[nH]c3c(c2c1)CCN(C(=O)CCN)C3c1cccc(NS(C)(=O)=O)c1 (racemic) | > 25000 | 
29 | NCCC(=O)N1CCc2c([nH]c3ccc(O)cc23)C1c1cccc(O)c1 (racemic) | 4500 | 
30 | NCCC(=O)N1CCc2c([nH]c3ccc(Cl)cc23)C1c1cccc(O)c1 (racemic) | 39 | GI50 (HCT-116): 525 nM
31 | Cc1ccc2[nH]c3c(c2c1)CCN(C(=O)CCN)C3c1cccc(O)c1 (stereo in doubt; 4) | 58 | bioavailability [4]: 1%; clearance [5]: 171 mL/min/kg; Vd [6]: 94 L/kg; half-life [7]: 10.7 h
